Data taken from patent publication US20090163481A1, “PPAR-DELTA LIGANDS AND METHODS OF THEIR USE” (priority 2007, published 2009).

Tests used:
LBD of PPARδ protein = target: T1, LBD of PPARδ protein (Homo sapiens, UniProt Q03181); assay: PPARδ ligand-binding domain (LBD)/Gal4 UAS-tk-luciferase reporter assay in U2-OS cells; format: cell-based
T1 construct: co-transfection of a plasmid containing an LBD/Gal4 fusion construct; expressed in transfected cells; host or cells: U2-OS (human bone cancer line)
T1 sequence (Q03181 211-439 limits assumed): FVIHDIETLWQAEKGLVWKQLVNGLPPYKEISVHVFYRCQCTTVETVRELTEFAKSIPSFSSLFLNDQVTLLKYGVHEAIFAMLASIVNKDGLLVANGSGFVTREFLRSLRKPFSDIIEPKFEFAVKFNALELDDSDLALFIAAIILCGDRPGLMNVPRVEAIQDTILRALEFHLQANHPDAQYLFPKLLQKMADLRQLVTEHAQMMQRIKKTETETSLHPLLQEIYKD
Description: General Testing Procedures. Each ligand was screened for PPARδ binding and transactivation activity through the use of two complementary reporter assays as described below. In both systems, transfection efficiency was standardized by co-transfection of a control Renilla luciferase. U2-OS (human bone cancer line) cells were used for both assays because this is the cell line of choice for screening PPAR ligands. At 18 h post-transfection, GW 501, with and without the ligands of the disclosure, was added to the cells and incubated for an additional 24 h. The cells were then harvested and luciferase activities profiled.
A PPARδ protein ligand-binding domain (LBD) assay. The LBD assay consists of cellular co-transfection of a plasmid containing an LBD/Gal4 fusion construct and a vector containing a UAS-tk-luciferase reporter construct under the transcriptional control of a Gal4 upstream activating sequence. This system was used to test for binding activities of candidate PPARδ ligands to the LBD of PPARδ protein.
Referring to FIG. 3, U2-OS cells were transiently transfected with appropriate expression and reporter vectors. Ligands were added to the cell cultures 24 h post-transfection and incubated for an additional 16 h. Lipoprotein lipase (LPL; 2 μg/ml) was added with VLDL (5 μg/ml) to release PPARδ-active triglycerides. FIG. 3A: PPARδ LBD/Gal4/UAS-tk-luc competition assays with VLDL SR13904 (0-10 μM). The reporter activation (fold increase over blank) is presented relative to GW501516 at 7 nM (fold increase over blank=100). FIG. 3B: PPRE reporter assays using 0, 1, and 10 μM SR13904+VLDL. All assays were repeated in triplicate.

PPARγ LBD = target: T2, PPARγ LBD (Homo sapiens, UniProt P37231); assay: PPARγ LBD binding and transactivation (ciglitazone competition); format: cell-based; conditions: data not shown
T2 construct: expressed in transfected cells; host or cells: U2-OS (inferred from the general testing procedure)
T2 sequence (P37231 238-503 limits assumed): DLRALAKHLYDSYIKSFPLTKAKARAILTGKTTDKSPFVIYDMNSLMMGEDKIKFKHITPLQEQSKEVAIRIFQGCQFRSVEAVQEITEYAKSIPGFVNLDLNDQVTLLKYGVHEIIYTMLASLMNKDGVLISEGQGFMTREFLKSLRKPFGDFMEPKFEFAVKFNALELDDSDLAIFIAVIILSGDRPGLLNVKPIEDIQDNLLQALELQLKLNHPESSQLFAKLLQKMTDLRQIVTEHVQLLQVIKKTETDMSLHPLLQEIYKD
Excerpt: Based on the cellular and molecular data generated, treatment of prostate cancer cells with SR 13904 attenuates a number of pro-tumorigenic activities that are likely to be associated with PPARδ. Furthermore, this nuclear receptor is now believed to be a master regulator of nuclear receptors, including both PPARγ and PPARα, and as such the inhibition of PPARδ activity modulates the other target transcription factors.

[1] = Proliferation assay of Table 2 (cell line not stated); format: cell-based; conditions: concentration that inhibits cell viability (or growth) by 50% relative to vehicle control; read-out: Prolif IC50
Description: The LANTHA SCREEN™ TR-FRET PPARδ Competitive Binding Assay was conducted for a variety of compounds according to the instructions provided by the manufacturer (Invitrogen). In addition, proliferation assays were conducted. In Table 2, “Prolif IC50” is the concentration that inhibits cell viability (or growth) by 50% relative to a vehicle control, and “TR-F binding IC50 (μM)” is the concentration that competes binding by a labeled pan-agonist to the ligand binding domain of PPAR delta, by 50%.

A549 cultures = assay: Real time PCR mRNA analysis of CDK2, CDK4, cyclin D1 in A549; format: cell-based, human; conditions: A549, 20 μM, 0.5% FBS, 24 and 48 h
Description: Referring now to FIG. 5D, to better define the level of regulation of SR13904 on cell cycle proteins, CDK2, CDK4, and cyclin D1 were selected for mRNA analysis using real time PCR. A549 cultures were treated with SR13904 (20 μM; 0.5% FBS) and sampled at 24- and 48-h time-points. […] For CDK2 the differences (SR13904-treated vs. vehicle control-treated) were significant (*p=0.01-0.05, **p=0.00-0.01). Computational analysis of the proximal human CDK2 promoter identified a number of putative consensus PPREs. None were found within the proximal promoter regions of the CDK4 and cyclin D1 genes. SR13904 may directly affect the transcriptional activity of CDK2 while exerting indirect effects on the expression of the CDK4 and cyclin D1 proteins, perhaps through control over PPARδ-dependent signaling pathways.

Akt1 = assay: Western analysis of phosphorylated Akt1 in growth factor-deprived PC-3 cultures; format: cell-based, human; conditions: PC-3, 48 h growth factor withdrawal; VLDL 2 μg/ml + LPL 2 μg/ml and/or 10 μM SR13904
Description: The ability of SR 13904 to regulate the cell survival Akt1 signaling pathway was assessed. PC-3 cultures were exposed to apoptosis-inducing growth factor deprivation and harvested for Western analysis of phosphorylated Akt1 and total PTEN protein. PTEN is known to inhibit the Akt1 pathway at the level of PI3-kinase. […] Subsequent studies confirmed this conclusion.
Referring to FIG. 8, PC-3 cells were exposed to 48 h of growth factor withdrawal with and without VLDL SR 13904 (2 μg/ml VLDL+2 μg/ml LPL and/or 10 μM SR13904). Standard western analysis for phospho-serine 473, phospho-tyrosine 308, and PTEN were performed. GAPDH was used as a control.

inhibition of binding of VLDL to PPARδ (LBD of PPARδ protein; SR13904 0-10 μM with VLDL): significantly inhibit | concentrations at which ligand binds LBD of PPARδ, attenuating LBD binding of GW501 (LBD of PPARδ protein; competition with GW501 (7 nM), U2-OS cells): 1 to 10 µM | PPARδ ligand profile (agonist/antagonist) (LBD of PPARδ protein; from GAL-4 binding and PPRE transactivation reporter screens): PPARδ antagonist | interference with ciglitazone binding to PPARγ LBD and transactivation (PPARγ LBD): interfere with ciglitazone binding
SMILES: Cc1cc(SCc2sc(-c3cccc4ccccc34)nc2C)ccc1OCC(=O)O [SR 13904]
IC50 [1]: 12 µM | CDK4 or cyclin D1 mRNA levels (A549 cultures): no effect | steady state levels of CDK2 mRNA (A549 cultures): significantly reduced | phosphorylation of serine 473 and tyrosine 308 on the Akt1 protein (Akt1): completely abolished
